Assay results taken from ChEMBL document CHEMBL3885881, “DrugMatrix”.

Species on record: Rattus norvegicus
Experiment: DrugMatrix - Regimen: Daily Repeat
Type: toxicity, organism-based, Sprague-Dawley
Design: regimen Daily Repeat, gender Male, age 6-8 weeks
Conditions: in vivo, sc, route subcutaneous, […]; for ABSOLUTE BASOPHIL / ABSOLUTE EOSINOPHIL / ABSOLUTE LYMPHOCYTE / ABSOLUTE MONOCYTE / ABSOLUTE SEGMENTED NEUTROPHIL / BASOPHIL / EOSINOPHIL / ERYTHROCYTE COUNT / HEMATOCRIT / HEMOGLOBIN / LEUKOCYTE COUNT / LYMPHOCYTE / MEAN CORPUSCULAR HEMOGLOBIN / MEAN CORPUSCULAR HEMOGLOBIN CONCENTRATION / MEAN CORPUSCULAR VOLUME / MONOCYTE / NEUTROPHIL / NUCLEATED RED BLOOD CELLS / PLATELET COUNT: tissue Blood
[1] = 25 mg/kg, 120 h, tissue Plasma, dose level High, time 5 day
[2] = 72 h, dose 0.25 mg/Kg, dose level M1, time 3 day
[3] = 72 h, tissue Plasma, dose 0.25 mg/Kg, dose level M1, time 3 day
[4] = 120 h, dose 0.25 mg/Kg, dose level M1, time 5 day
[5] = 120 h, tissue Plasma, dose 0.25 mg/Kg, dose level M1, time 5 day

For C[C@]12CC[C@@H]3c4ccc(OC(=O)c5ccccc5)cc4CC[C@H]3[C@@H]1CC[C@@H]2O [ESTRADIOL BENZOATE], the SODIUM [1] was 143.3 MEQ/L, the “TOTAL BILIRUBIN” value [1] was 0.1 mg/dL and the “TOTAL PROTEIN” value [1] was 7.6 G/DL. For the same compound, the “URIC ACID” value [1] was 2.1 mg/dL, the “ABSOLUTE BASOPHIL” value [2] was 0 CELLS/uL and the “ABSOLUTE EOSINOPHIL” value [2] was 0 CELLS/uL. For the same compound, the “ABSOLUTE LYMPHOCYTE” value [2] was 8002.33 CELLS/uL, the “ABSOLUTE MONOCYTE” value [2] was 146.33 CELLS/uL and the “ABSOLUTE SEGMENTED NEUTROPHIL” value [2] was 218 CELLS/uL. For the same compound, the BASOPHIL [2] was 0%, the EOSINOPHIL [2] was 0% and the “ERYTHROCYTE COUNT” value [2] was 6.05 x10E6/uL. The HEMATOCRIT [2] was 38.6%, the HEMOGLOBIN [2] was 15.03 G/DL and the “LEUKOCYTE COUNT” value [2] was 8.37 x10E3/uL. The LYMPHOCYTE [2] was 95.67%, the “MEAN CORPUSCULAR HEMOGLOBIN” value [2] was 24.83 pg and the “MEAN CORPUSCULAR HEMOGLOBIN CONCENTRATION” value [2] was 39.03 G/DL. The “MEAN CORPUSCULAR VOLUME” value [2] was 63.73 fL, the MONOCYTE [2] was 1.67% and the NEUTROPHIL [2] was 2.67%. For the same compound, the “NUCLEATED RED BLOOD CELLS” value [2] was 0 /100WBC, the “PLATELET COUNT” value [2] was 1109.67 x10E3/uL and the “ALANINE AMINOTRANSFERASE” value [3] was 61.67 u/L. For the same compound, the ALBUMIN [3] was 4.2 G/DL, the “ALKALINE PHOSPHATASE” value [3] was 323.67 u/L and the “ASPARTATE AMINOTRANSFERASE” value [3] was 81.33 u/L. For the same compound, the “BLOOD UREA NITROGEN” value [3] was 11.33 mg/dL, the “CARBON DIOXIDE” value [3] was 26.33 mmol/L and the CHOLESTEROL [3] was 75.67 mg/dL. The “CREATINE PHOSPHOKINASE” value [3] was 295 u/L, the CREATININE [3] was 0.23 mg/dL and the GLUCOSE [3] was 126 mg/dL. For the same compound, the “LACTATE DEHYDROGENASE” value [3] was 285.67 u/L, the LIPASE [3] was 12.33 u/L and the PHOSPHORUS [3] was 10.4 mg/dL. For the same compound, the “TOTAL BILIRUBIN” value [3] was 0.1 mg/dL, the “TOTAL PROTEIN” value [3] was 6.03 G/DL and the “URIC ACID” value [3] was 0.43 mg/dL. The “ABSOLUTE BASOPHIL” value [4] was 0 CELLS/uL, the “ABSOLUTE EOSINOPHIL” value [4] was 45.33 CELLS/uL and the “ABSOLUTE LYMPHOCYTE” value [4] was 12282.67 CELLS/uL. For the same compound, the “ABSOLUTE MONOCYTE” value [4] was 135 CELLS/uL, the “ABSOLUTE SEGMENTED NEUTROPHIL” value [4] was 937 CELLS/uL and the BASOPHIL [4] was 0%. For the same compound, the EOSINOPHIL [4] was 0.33%, the “ERYTHROCYTE COUNT” value [4] was 5.99 x10E6/uL and the HEMATOCRIT [4] was 37.83%. For the same compound, the HEMOGLOBIN [4] was 14.7 G/DL, the “LEUKOCYTE COUNT” value [4] was 13.4 x10E3/uL and the LYMPHOCYTE [4] was 91.67%. For the same compound, the “MEAN CORPUSCULAR HEMOGLOBIN” value [4] was 24.53 pg, the “MEAN CORPUSCULAR HEMOGLOBIN CONCENTRATION” value [4] was 38.87 G/DL and the “MEAN CORPUSCULAR VOLUME” value [4] was 63.13 fL. The MONOCYTE [4] was 1%, the NEUTROPHIL [4] was 7% and the “NUCLEATED RED BLOOD CELLS” value [4] was 0 /100WBC. The “PLATELET COUNT” value [4] was 1305.33 x10E3/uL, the “ALANINE AMINOTRANSFERASE” value [5] was 47.67 u/L and the ALBUMIN [5] was 4 G/DL. The “ALKALINE PHOSPHATASE” value [5] was 486.33 u/L, the “ASPARTATE AMINOTRANSFERASE” value [5] was 78.33 u/L and the “BLOOD UREA NITROGEN” value [5] was 15.33 mg/dL. The “CARBON DIOXIDE” value [5] was 22.67 mmol/L, the CHLORIDE [5] was 104.33 MEQ/L and the CHOLESTEROL [5] was 33 mg/dL. For the same compound, the “CREATINE PHOSPHOKINASE” value [5] was 654 u/L, the CREATININE [5] was 0.27 mg/dL and the GLUCOSE [5] was 190 mg/dL. The “LACTATE DEHYDROGENASE” value [5] was 308 u/L, the LIPASE [5] was 9 u/L and the PHOSPHORUS [5] was 12.63 mg/dL. The POTASSIUM [5] was 4.9 MEQ/L, the SODIUM [5] was 143.3 MEQ/L and the “TOTAL BILIRUBIN” value [5] was 0.1 mg/dL. The “TOTAL PROTEIN” value [5] was 5.73 G/DL and the “URIC ACID” value [5] was 1.6 mg/dL.
